These results are taken from US20210093531A1, “DERIVATIVES OF MENTHOL AND USES THEREOF” (Board of Trustees of Northern Illinois University, priority 2019, published 2021).

Holding throughout (assay type): in vivo
Test [1] is described as follows: organoleptic evaluation in ethanol, propylene glycol and water. To be noted: for organoleptic properties, EtOH / organoleptic properties, PG / organoleptic properties (entry names no solvent): 100 ppm; for organoleptic properties, EtOH: ethanol cut in aqueous solution; for organoleptic properties, PG: propylene glycol cut in aqueous solution; for organoleptic properties (entry names no solvent): entry without solvent suffix. On the procedure: Stock solutions for each solution was prepared as described below to afinal concentration of 100 ppm.
c. Mix well to achieve final concentration of 100 ppm.
a. Prepare a stock solution of 2.5% solution in PG by adding 25 mg of menthol analog in 1 gram of PG (mix well).
Organoleptic properties by compound are listed below for menthol derivatives in ethanol, propylene glycol, and water: […]

Test [2] has as its system trained panelists. Put plainly: time-intensity analysis of cooling, lozenge application. Particulars: 4-minute window. The procedure: In order to evaluate the potential use of menthol glycinates as […] different food, beverage and oral hygiene products, select compounds were incorporated in different application systems. A beverage model system, a lozenge and a mouthwash application were created, and time-intensity analysis was performed using trained discrimination analysis panelists. Time-Intensity (TI) is a temporal sensory method. During TI evaluations, assessors are asked to score the intensity of perception of a single attribute over consumption of the product. Compared to single point measurements, TI analysis can characterize the onset, decline and rates thereof, of particular sensory characteristics. This analysis may reveal rich information regarding the intensity of an attribute over the time domain and identify temporal perceptual differences among samples that can greatly impact the overall profile of a product. For each sample evaluation, a temporal curve is generated, based on duplication. The temporal curves for each panelist are combined to generate a combined curve for each product that is evaluated. The following distinct parameters were calculated: Imax: peak intensity or maximum observed intensity on the whole curve; […]: time point where the reaction to the stimulus is first perceived on the curve; Tmax: time position of the peak intensity on the curve; Tplateau: protraction of maximum intensity or duration of maximum intensity; Text: time point of extinction of the perception of the stimulus, defined as the position in time after the peak intensity where the measured intensity disappears (or the end of evaluation window); Iext: intensity at time of extinction or end of evaluation; R increase: slope or rate of intensity increase between […] and Tmax; R decrease: slope or rate of intensity decrease between Tmax and Text; and Area: the total area under the time-intensity curve. The formula detailed in Table 4 was employed to create the lozenge application to evaluate menthol glycinates of interest using time-intensity analysis. [table] For time-intensity (T-I) evaluation of the cooling intensity of lozenges, 9 panelists were recruited (3 male, 6 female). Panelists were trained in basic taste descriptive analysis. A sweetness reference series (intensity range 2-12) was provided to be used as cross-modality reference to aid in scaling the intensity of the cool attribute present in the lozenge samples. Panelists evaluated samples in duplicates and all samples were presented blinded and in a randomized order using a 3-digit code. Panelists were instructed to provide cooling intensity at predetermined time points throughout an evaluation window of 4 minutes. […] Evaluations were performed with at least 4 hours between them to ensure no carry over. Data analysis for generation of T-I statistics and ANOVA analysis to determine significant difference among samples was performed using R STUDIO.

Test [3] deals with trained panelists. Nature of the test: time-intensity analysis of cooling, mouthwash application. Particulars: for Iext (cooling intensity at end of evaluation): 15 minutes after expectoration. The procedure: In order to evaluate the potential use of menthol glycinates as […] different food, beverage and oral hygiene products, select compounds were incorporated in different application systems. A beverage model system, a lozenge and a mouthwash application were created, and time-intensity analysis was performed using trained discrimination analysis panelists. Time-Intensity (TI) is a temporal sensory method. During TI evaluations, assessors are asked to score the intensity of perception of a single attribute over consumption of the product. Compared to single point measurements, TI analysis can characterize the onset, decline and rates thereof, of particular sensory characteristics. This analysis may reveal rich information regarding the intensity of an attribute over the time domain and identify temporal perceptual differences among samples that can greatly impact the overall profile of a product. For each sample evaluation, a temporal curve is generated, based on duplication. The temporal curves for each panelist are combined to generate a combined curve for each product that is evaluated. The following distinct parameters were calculated: Imax: peak intensity or maximum observed intensity on the whole curve; […]: time point where the reaction to the stimulus is first perceived on the curve; Tmax: time position of the peak intensity on the curve; Tplateau: protraction of maximum intensity or duration of maximum intensity; Text: time point of extinction of the perception of the stimulus, defined as the position in time after the peak intensity where the measured intensity disappears (or the end of evaluation window); Iext: intensity at time of extinction or end of evaluation; R increase: slope or rate of intensity increase between […] and Tmax; R decrease: slope or rate of intensity decrease between Tmax and Text; and Area: the total area under the time-intensity curve. The formula shown in Table 8 was employed to create a mouthwash product to evaluate […] of interest using time-Intensity analysis. [table] The following test compounds were evaluated: menthol, XI-I-60, RK-2-10, XI-I-65, DK-1-50, and XI-2-73. For time-intensity (T-I) evaluation of the cooling attributes of mouthwash products, 8 panelists were recruited (2 male, 6 female). Panelists were trained in basic taste descriptive analysis. A sweetness reference series (intensity range 2-12) was provided to be used as cross-modality reference to aid in scaling the intensity of the cooling attribute present in the mouthwash samples. Panelists evaluated samples in duplicates and all sample were presented blinded and in a randomized order using a 3-digit code. Panelist evaluated 15 ml of mouthwash at a time and were instructed to rinse for 30 seconds and expectorate. Panelists were instructed to provide cooling intensities before and after expectoration. For the time before expectoration, evaluation started upon introducing the sample and every 10 seconds thereafter. After expectoration, the evaluation continued for 15 minutes and panelists provided cooling intensity ratings at predetermined times. Due to the unique nature of this product and the interest in prolonging the cooling attribute long after consumption, an additional parameter led was evaluated among samples via ANOVA. This parameter is the cooling intensity at time of extinction or in our case the end of evaluation. Data analysis for generation of T-I statistics and ANOVA analysis to determine significant difference among samples was performed using R STUDIO.

[4] abbreviates: after expectoration for 15 minutes (Table 9b).
[5] abbreviates: rinse phase 30 seconds (Table 9a).

Entries after “also recorded” stand apart in the source; their conditions may differ. Marks after values point to notes of the source that are not given here.

`CC1CCC(C(C)C)C(O)C1` (centres unmarked) [Menthol, menthol]: in test [1] (simple solutions of PG and water or ethanol), the “organoleptic properties of menthol” value is on record as “very strong, instantaneous cooling effect”. Also, in the test on trained panelists [2] (0.05 g test compound per 100 g, 2 g sample, 9 panelists), the “Imax (peak cooling intensity)” value was 11.53^bc^. For the same compound, in the test on trained panelists [2], the “AUC (total area under time-intensity curve)” value was 2064.83^b, the “RDec (rate of intensity decrease)” value was 0.056^b, the “RInc (rate of intensity increase)” value is 0.053^b and the “Tmax (time of peak intensity)” value is 180.00^b. In addition, the “Tstart (time cooling first perceived)” value in the test with trained panelists [2] was 5.00^b. The “Iext (cooling intensity at end of evaluation)” value (“Iext” below) in the test with trained panelists [3] is 1^a. In addition, in the test with trained panelists [3] (setting [4]), the AUC was 3608.38^a, the I max is given as 12.01^a^, the Rdec is listed as −0.03^a and the Rinc is on record as 0.00^a. Also, in the test with trained panelists [3] (setting [4]), the Tmax is listed as 33.53^a and the Tstart is recorded as 30.00^a. Also, in the test with trained panelists [3] (setting [5]), the AUC was 168.97^a, the Imax is reported as 12.56^a, the Rdec is given as −0.09^a and the Rinc is reported as 0.21^a. Further, the Tstart in the test on trained panelists [3] (setting [5]) is 10.88^a.

`CCCCN(CCCC)CC(=O)O[C@@H]1C[C@H](C)CC[C@H]1C(C)C` [Product 10, (1R,2S,5R)-2-Isopropyl-5-methylcyclohexyl 2-(dibutylamino)acetate]: in test [1] (listed as RK-2-10), the “organoleptic properties, EtOH” value was “delay onset mild cooling (post 20 seconds) with a; also recorded: slight tingling and sweetness that extended past 1”; the “organoleptic properties, PG” value is listed as “Very low intensity of cooling that slowly builds with; also recorded: a skin tingling effect. Could be a good candidate”; the “organoleptic properties (entry names no solvent)” value is “exhibited a delayed onset cooling and an upfront; also recorded: bitterness from PG”. The “Tmax (time of peak intensity)” value in the test with trained panelists [2] was 210.00^a. Moreover, in the test on trained panelists [3], the “Iext” value is 0.9^a. In the test on trained panelists [3] (setting [4]), the AUC is reported as 4105.91^ac, the I max is recorded as 12.65^ab, the Rdec is −0.01^b and the Tmax is on record as 30.00^a. Moreover, the Tstart in the test with trained panelists [3] (setting [4]) is 30.00^a. Besides, in the test with trained panelists [3] (setting [5]), the AUC is reported as 182.05^a, the Imax is 12.82^a, the Rinc is reported as 0.18^b and the Tstart was 10.91^a.

With `CC(C)[C@@H]1CC[C@@H](C)C[C@H]1OC(=O)CN(C)C(C)C` [Product 16, (1R,2S,5R)-2-Isopropyl-5-methylcyclohexyl 2-(isopropyl(methyl)amino)acetate], in test [1] (listed as XI-1-50), the “organoleptic properties, EtOH” value was “initial alcohol cooling burn with late onset cooling; also recorded: at 20 seconds and deep cooling at 60 seconds”; the “organoleptic properties, PG” value is recorded as “initial bitterness from PG cooling at 30 seconds”; the “organoleptic properties (entry names no solvent)” value is “slight delay in cooling after 20 seconds with some; also recorded: upfront bitterness coming from PG. Very intense; also recorded: building cooling post 50 seconds”. In the test on trained panelists [2], the “Tmax (time of peak intensity)” value is 204.71^a and the “Tstart (time cooling first perceived)” value was 7.85^ac. In addition, in the test on trained panelists [3], the “Iext” value was 2.33^b. Also, in the test with trained panelists [3] (setting [4]), the AUC is recorded as 5565.00^b, the I max is reported as 13.37^ab, the Rdec is given as −0.01^b and the Rinc is recorded as 0.03^b. In the test on trained panelists [3] (setting [4]), the Tmax is recorded as 32.73^a and the Tstart is 30.00^a. Besides, in the test on trained panelists [3] (setting [5]), the AUC was 180.91^a, the Imax is 13.09^a, the Rdec was 0.00^b and the Rinc is listed as 0.23^a. The Tstart in the test with trained panelists [3] (setting [5]) is given as 10.00^a.

Consider “(1R,2S,5R)-2-Isopropyl-5-methylcyclohexyl 2-(isopropylamino)acetate [Product 7]”, for which, in test [1] (listed as XI-1-60), the “organoleptic properties, EtOH” value is recorded as “cooling started at 20 seconds with slight alcohol; also recorded: burn, very intense cooling profile from 20 seconds” and the “organoleptic properties, PG” value was “Up front cooling at 10 seconds with stronger cooling; also recorded: at 20 seconds, much more intense cooling than XI-”. Also, in the test with trained panelists [2], the “RInc (rate of intensity increase)” value was 0.041^ab and the “Tmax (time of peak intensity)” value is recorded as 210.00^a. Further, the “Iext” value in the test on trained panelists [3] was 1.23^a. In addition, in the test with trained panelists [3] (setting [4]), the AUC is given as 4344.50^ac, the I max is 12.33^ab, the Rdec is on record as −0.01^b and the Rinc is 0.00^a. In the test with trained panelists [3] (setting [4]), the Tmax is listed as 36.00^a and the Tstart is given as 30.00^a. For the same compound, in the test with trained panelists [3] (setting [5]), the AUC was 170.50^a, the Imax is 12.43^a, the Rinc is reported as 0.20^a and the Tstart is recorded as 11.00^a.
